Data from patent US20100197625A1, “SYNTHETIC LIPOPHILIC INOSITOL GLYCANS FOR TREATMENT OF CANCER AND GLUCOSE-METABOLISM DISORDERS” (priority 2006, published 2010).
Entries after “also recorded” stand apart in the source; their conditions may differ.

Tests used:
native rat adipocytes = assay: Lipogenesis in native rat adipocytes; format: cell-based; conditions: rat isolated adipocytes
Description: Adipocytes were isolated from epididymal fat pads dissected from freshly sacrificed male Long-Evans rats and incorporation of [6-^3H]-glucose into triglycerides in response to treatment with inositol glycans or insulin was measured as previously described (Chakraborty, N. and M. d'Alarcao, Bioorganic & Medicinal Chemistry 13 (2005) 6732-6741).

human hepatoma (HuH7) = assay: Cell proliferation / cell death assay, HuH7; format: cell-based; conditions: HuH7, 10-100 μM
Description: (§1) Human pancreatic cancer cell lines (Panc-1, MiaPaca2, BXPC3, Aspc 1), human hepatoma cell line (HuH7), human gastric cancer cell lines (AGS, MKN45), human colon cancer cell line (CoCM-1), human mammary cancer cell line (MCF-7), human neuroblastoma (SH-SY5Y), human prostate cancer cells (PC3), and murine Ehrlich ascites cancer cells and mouse 3T3-L1 fibroblasts were obtained from American Type Culture Collection (Rockville, Md., USA). The cancer cells were cultured in RPMI 1640 containing 10% fetal calf serum. Cultures were maintained at 37° C. in a humidified atmosphere of 5% CO2.
(§2) Cell proliferation assays were performed with the CellTiter 96 AQueous One Solution Cell Proliferation Assay kit according to the manufacturer's instructions (Promega, Madison, Wis., USA). Briefly, 5×10^3 cells/well in medium were placed onto 96-well plates. IGs were added to cellular cultures at final concentrations of 0, 1, 10, and 100 μM. […] of CellTiter 96 AQueous One Solution Reagent, which contains a tetrazolium compound, 3-(4,5-dimethylthiazol-2-yl)-5-(3-carboxymethoxyphenyl)-2-(4-sulfophenyl)-2H-tetrazolium, an inner salt; MTS was added to the culture medium. After incubating the plate for 1 h in a CO2 incubator, absorbance at 490 nm was recorded with a 96-well plate reader.

MKN45 = assay: Cell proliferation / cell death assay, MKN45; format: cell-based, human; conditions: MKN45, 10-100 μM
Description: as §1
Cell proliferation assays were performed with the CellTiter 96 AQueous One Solution Cell Proliferation Assay kit according to the manufacturer's instructions (Promega, Madison, Wis., USA). Briefly, 5×10^3 cells/well in medium were placed onto 96-well plates. IGs were added to cellular cultures at final concentrations of 0, 1, 10, and 100 μM. Cultures were incubated for 3 days or 7 days and then added to 20 μL/well of CellTiter 96 AQueous One Solution Reagent, which contains a tetrazolium compound, 3-(4,5-dimethylthiazol-2-yl)-5-(3-carboxymethoxyphenyl)-2-(4-sulfophenyl)-2H-tetrazolium, an inner salt; MTS was added to the culture medium. After incubating the plate for 1 h in a CO2 incubator, absorbance at 490 nm was recorded with a 96-well plate reader.

[1] = system: Ehrlich ascites cancer cells; assay: Animal survival analysis, ddY mice bearing Ehrlich ascites cancer cells; format: in vivo; conditions: daily intraperitoneal for 7 days
Description: Male ddy mice weighing 20-30 g obtained from and maintained on a standard diet and water ad libitum. Ehrlich ascites cancer cells (5×10^6 cells) were injected intraperitoneal to the mice. After 7 days later, the mice were subjected to daily intraperitoneal injection of IG1 or IG1 plus alkyl-acyl-phosphatidic acids (AAPAs) for additional 7 days. The endpoint of experiment was determined by spontaneous death of animals.

[2] = system: C57B/6 mice on high-fat diets; assay: Intravenous administration of IG1, mice on high-fat diets; format: in vivo
Description: (§3) Male C57BL/6 mice were housed individually and given free access to a standard diet (65% carbohydrate, 4% fat, and 24% protein) or a high-fat diet (Quick Fat; 60.2% carbohydrate, 15.3% fat, and 24.5% protein; Clea Japan, Tokyo, Japan), starting at 5 weeks of age, for 5 weeks. Db/db mice also were housed individually and given free access to a standard diet. C57BL/6 mice at 5 weeks of age, were received a single dose of 75 μg/g body weight streptozotoxin (STZ). 7 days after injections, the mice, whose fasting plasma glucose concentrations were over 400 mg/dl, were used as STZ-diabetic mice. […]
(§4) Frozen livers were homogenized, and triglycerides were extracted with CHCl3:CH3OH (2:1, vol:vol), dried and resuspended in 2-propanol (17). Triglyceride contents were measured using Lipidos liquid (TOYOBO, Osaka, Japan). […] Glycogen content was determined by the phenol-sulfuric acid spectrophotometric method at 490 nm (18) and expressed as micrograms of glycogen per milligram of liver.
(§5) Blood glucose was assayed with Glucose Ace (Sanwa Kagaku Kenkyusho, Nagoya, Japan). Serum insulin and leptin were determined with ELISA kits (Morinaga Institute of Biological Science, Yokohama, Japan). Serum adiponectin and tumor necrosis factor-α (TNF-α) concentrations were measured with an ELISA kit (Ohtsuka Pharmaceutical, Tokyo, Japan) and a TNF-α assay kit (Amersham Biosciences, Uppsala, Sweden), respectively. […]

[3] = system: C57B/6 mice on high-fat diets; assay: Intraperitoneal IG1 for 7 days, mice on high-fat diets; format: in vivo
Description: Male C57BL/6 mice were housed individually and given free access to a standard diet (65% carbohydrate, 4% fat, and 24% protein) or a high-fat diet (Quick Fat; 60.2% carbohydrate, 15.3% fat, and 24.5% protein; Clea Japan, Tokyo, Japan), starting at 5 weeks of age, for 5 weeks. Db/db mice also were housed individually and given free access to a standard diet. C57BL/6 mice at 5 weeks of age, were received a single dose of 75 μg/g body weight streptozotoxin (STZ). 7 days after injections, the mice, whose fasting plasma glucose concentrations were over 400 mg/dl, were used as STZ-diabetic mice. Animal study protocols were in accordance with the institutional guidelines for animal experiments at Tohoku University.
Frozen livers were homogenized, and triglycerides were extracted with CHCl3:CH3OH (2:1, vol:vol), dried and resuspended in 2-propanol (17). Triglyceride contents were measured using Lipidos liquid (TOYOBO, Osaka, Japan). Glycogen was isolated from 30-50 mg of frozen liver by dissolving the tissue in 30% potassium hydroxide saturated with Na2SO4 for 30 min at 100° C., followed by ethanol precipitation. Glycogen content was determined by the phenol-sulfuric acid spectrophotometric method at 490 nm (18) and expressed as micrograms of glycogen per milligram of liver.
Blood glucose was assayed with Glucose Ace (Sanwa Kagaku Kenkyusho, Nagoya, Japan). Serum insulin and leptin were determined with ELISA kits (Morinaga Institute of Biological Science, Yokohama, Japan). Serum adiponectin and tumor necrosis factor-α (TNF-α) concentrations were measured with an ELISA kit (Ohtsuka Pharmaceutical, Tokyo, Japan) and a TNF-α assay kit (Amersham Biosciences, Uppsala, Sweden), respectively. Serum total cholesterol, triglyceride, and FFA concentrations were determined with a Cholescolor liquid, Lipidos liquid (TOYOBO, Osaka, Japan), and NEFA C (Wako Pure Chemical, Osaka, Japan) kits, respectively.
Glucose tolerance was assessed with intraperitoneal glucose tolerance. Glucose tolerance tests were performed on fasted (16 h) mice. Mice were given intraperitoneal glucose (2 g/kg body wt), and blood glucose was assayed immediately before and at 15, 30, 60, and 120 min after administration.

[4] = system: db/db, obese-diabetic mice; assay: Intravenous administration of IG1, db/db mice; format: in vivo
Description: as §3, §4, §5

Panc-1 cells = assay: Cell proliferation / cell death assay, Panc-1; format: cell-based, human
Description: as §1, §2

[5] = high fat-diets, IG1 1 mg, 7 days, Mean ± SD (n = 6)

## CCCCCCCCCCCCCCCC(=O)O[C@@H]1C(O)C(O)[C@H](O)C(O[C@H]2OC(CO)[C@@H](O)[C@H](O)C2N)C1O (stereo in doubt) [IG1, 2-Amino-2-deoxy-α-D-glucopyranosyl-(1→6)-2-palmitoyl-D-myo-inositol]
Native rat adipocytes; Adipocyte, fit to receptor binding model, read-out: EC50 value for stimulation of lipogenesis
  EC50: 14 µM
Native rat adipocytes; Adipocyte, stimulation of lipogenesis, read-out: Amax (maximal effect)
  Emax: 24%
Native rat adipocytes; concentration series
  stimulation of lipogenesis: stimulated lipogenesis
Human hepatoma (HuH7)
  rapid cancer cell death: rapid cancer cell death was demonstrated
MKN45
  rapid cancer cell death: rapid cancer cell death was demonstrated
[1]
  survival times: did not affect the survival times
[2]; intravenous, 0.3-1 mg per mice, 90-300 min after administration
  plasma glucose concentrations: significantly reduced plasma glucose concentrations
[2]; mice on high-fat diets, data not shown
  hepatic and muscular glycogen contents: significantly increases hepatic and muscular glycogen contents
[3]; after 7 days, data not shown
  hepatic and muscular glycogen contents: increases hepatic and muscular glycogen contents
  hepatic triglyceride contents: decreases hepatic triglyceride contents
[3]; [5]
  Adiponectin: 50.4 ± 4.8 µg/mL
  Body weight: 32.1 ± 1.8 g
  Fasting plasma glucose: 62.8 ± 6.3 mg/dL
  Fasting plasma insulin: 0.44 ± 0.19 ng/mL
  Food intake: 2.93 ± 0.37 g/day
  Leptin: 17.3 ± 5.4 ng/mL
  NEFA: 0.78 ± 0.18 mEq/l
  TNF-1α: 33.7 ± 4.4 pg/mL
  Total cholesterol: 177.9 ± 24.6 mg/dL
  Triglyceride: 26.2 ± 4.4 mg/dL
[3]; intraperitoneal, 1 mg per mice, for every 7 days
  glucose tolerance: significantly improved glucose tolerance
[4]; data not shown
  hepatic and muscular glycogen synthesis: increases hepatic and muscular glycogen synthesis
[4]; intravenous
  plasma glucose concentrations: reduced plasma glucose concentrations
Panc-1 cells; Panc-1, 1 hour after addition, 10-100 μM
  cell death: induced very rapid cell death; also recorded: induced rapid cell death
Panc-1 cells; Panc-1, after 24 hours
  cell death: induced rapid cell death
Panc-1 cells; Panc-1, after 3 days (72 hours)
  cell death: induced rapid cell death
